Reference: patent US7691858B2, “Kinase inhibitors and methods of use thereof” (TargeGen, Inc., priority 2006, dated 2010)
Counter-ions that a name gives are not always drawn. Blank lines part the entries; values can stand above or below the molecule they belong to.

How the values were obtained:
cerebral infarct = assay: Rodent model of cerebral stroke (permanent middle cerebral artery occlusion); type: in vivo, mice; conditions: 1 mg/kg BW IV 60 min after ligation; for Infarct area in mm^3 (mean ± SEM): 24 hours; for % Infarct reduction: vs vehicle
Description: A rodent model of cerebral stroke, in which the middle cerebral artery is permanently occluded, was used to determine whether test agents reduced infarct size at 24 hours.
Cerebral strokes were created in mice by permanent ligation of the middle cerebral artery using a cauterizing tool, followed 60 min later by IV injection of either vehicle alone (50% PEG400 in water) or test agents (at 1 mg/kg BW). Twenty four hours later, brains were sectioned and stained using triphenyltetrazolium chloride to delineate viable from infarcted tissue. Photographic images were then analyzed using morphometric software to calculate infarct area.

VEGF-induced edema = assay: Miles assay, VEGF as agonist; type: in vivo, Sprague-Dawley rats; conditions: vehicle 12; for Score (scale of 0-12): VEGF 200 ng/site, lower score = greater anti-edema activity; for Score with VEGF as agonist (scale of 0-12): 1.5 mg/kg, VEGF 200 ng/injection site
Description: A rodent model of vascular edema, the Miles assay, was used to screen compounds for their ability to inhibit VEGF-induced edema. […] Sprague-Dawley rats were first injected IV with vehicle alone or test agent, followed by IV injection of Evans blue dye, followed by intradermal injections of saline and VEGF (200 ng/injection site) along both shaved flanks.

myocardial infarct = assay: Rodent model of acute myocardial infarct (LAD occlusion/reperfusion); type: in vivo, Sprague-Dawley rats
Description: A rodent model of acute myocardial infarct, in which the proximal left anterior descending coronary artery (LAD) is occluded for 60 min followed by reperfusion, was used to determine whether test agents reduced infarct size at 24 hours.
Myocardial infarcts were created in Sprague-Dawley rats (200-300 g body weight) by a 60 min occlusion of the LAD followed by LAD reperfusion. […] At 24 hr post-treatment, the ischemic zone (area at-risk, AAR) was delineated by re-ligation of the LAD followed by IV injection of alkali blue dye, after which hearts were sectioned along the short axis and stained using triphenyltetrazolium chloride to delineate viable from infarcted myocardium. Photographic images were then analyzed using morphometric software to calculate infarct area as a percent of the at-risk area.
Rodent MI model: All animal studies followed current “NIH Guidelines for the Use of Laboratory Animals” and were performed according to IACUC-approved protocols. Sprague-Dawley rats (275-300 g) were anesthetized using inhaled isoflurane after which chest walls were shaved and swabbed with iodine. Animals were then intubated and maintained on 2% isoflurane (delivered in 30% O2/70% N2), with optimal respiratory rate and stroke volumes set by a volume-controlled safety ventilator (Inspira Advanced Safety Ventilator; Harvard Apparatus, Holliston, Mass.). Body temperatures were maintained at 35-37° C. using heating pads and five-lead electrocardiograms established. For each animal, a left thoracotomy was performed at the third intercostal space, the heart was exposed and a suture snare tightened around the LAD at the point it appeared from beneath the left atrium. Ischemia was confirmed from blanching of the left ventricle (LV) as well as changes in ECG patterns. After the desired period of occlusion (60 min in the standard model), the suture snare was loosened to allow complete reperfusion (but retained in place using shallow sutures) and the chest closed in layers. […].
For infarct size determination, LAD occlusion was repeated on each animal 24 hr after the initial occlusion. The ischemic zone (area-at-risk or AAR) was then delineated by i.v. injection of Evans blue dye (5 ml of a 10% saline solution containing 100 U/ml sodium heparin). The heart was explanted, atria and right ventricle trimmed free, and the LV (septal and free walls) frozen at −20° C. to induce rigor. After thawing on ice, the LV was subdivided into six 2 mm thick sections along the short axis using a metal form to guide dissection. Heart sections were stained for 20 min in 37° C. triphenyltetrazolium chloride (TTC, 2% in 0.04 M K2HPO4/0.17 M sucrose) to delineate viable from infarcted myocardium, fixed for 20 min in 10% formalin, then rinsed in saline. For each section, photographs were taken of both anterior and posterior surfaces and these images analyzed (by personnel blinded as to treatment identity) using a morphometric software package (Image Pro Plus; Media Cybernetics, Silver Spring, Md.). The following areas were calculated, based on their differing pixel densities: non-ischemic zone (Evans blue-stained), viable-but-ischemic zone (free of Evans blue but TTC-stained), and infarct-within-ischemic zone (free of both Evans blue and TTC stain). Area values for anterior and posterior views were averaged, and these values used to calculate the following AAR=Viable-but-ischemic Area+Infarct Area Equation 1 Total LV Area=AAR+Non-ischemic Area Equation 2

histamine-induced edema = assay: Miles assay, histamine as agonist; type: in vivo, Sprague-Dawley rats; conditions: 1.5 mg/kg; histamine 10 μg/injection site; vehicle 12
Description: Sprague-Dawley rats were first injected IV with vehicle alone or test agent, followed by IV injection of Evans blue dye, followed by intradermal injections of saline and VEGF (200 ng/injection site) along both shaved flanks. […] The ability of test agents to influence edema induced by agonists other than VEGF was also tested. Compounds cited in this application inhibited edema formation induced using histamine as an agonist, for example, as shown below. The ability of test agent to influence vascular edema was tested as above, except that the ability to block edema was tested using either VEGF or histamine as the agonist (200 ng and 10 μg/injection site, respectively).

[1] = target: T1, human p120γ subunit of PI3K (Homo sapiens, UniProt P48736); assay: PI3K enzymatic activity at two concentrations (Upstate Group); type: biochemical; conditions: 100% = no inhibition, 0% = complete inhibition
T1 construct: purchased Upstate Group, Charlottesville, Va; (contract assay)
Description: The ability of compounds to inhibit the activity of PI3K kinase was determined using biochemical assays. In a first assay, compounds were tested at two concentrations (0.5 and 5 μM) for their ability to inhibit enzymatic activity of the human p120γ subunit of PI3K (the assay being performed under contract by Upstate Group, Charlottesville, Va.).

[2] = 1.5 mg/kg BW IV at 90 min post-reperfusion, 24 hr
[3] = 1.5 mg/kg BW IV at 90 min post-reperfusion, vs vehicle

T1 sequence (P48736 whole entry): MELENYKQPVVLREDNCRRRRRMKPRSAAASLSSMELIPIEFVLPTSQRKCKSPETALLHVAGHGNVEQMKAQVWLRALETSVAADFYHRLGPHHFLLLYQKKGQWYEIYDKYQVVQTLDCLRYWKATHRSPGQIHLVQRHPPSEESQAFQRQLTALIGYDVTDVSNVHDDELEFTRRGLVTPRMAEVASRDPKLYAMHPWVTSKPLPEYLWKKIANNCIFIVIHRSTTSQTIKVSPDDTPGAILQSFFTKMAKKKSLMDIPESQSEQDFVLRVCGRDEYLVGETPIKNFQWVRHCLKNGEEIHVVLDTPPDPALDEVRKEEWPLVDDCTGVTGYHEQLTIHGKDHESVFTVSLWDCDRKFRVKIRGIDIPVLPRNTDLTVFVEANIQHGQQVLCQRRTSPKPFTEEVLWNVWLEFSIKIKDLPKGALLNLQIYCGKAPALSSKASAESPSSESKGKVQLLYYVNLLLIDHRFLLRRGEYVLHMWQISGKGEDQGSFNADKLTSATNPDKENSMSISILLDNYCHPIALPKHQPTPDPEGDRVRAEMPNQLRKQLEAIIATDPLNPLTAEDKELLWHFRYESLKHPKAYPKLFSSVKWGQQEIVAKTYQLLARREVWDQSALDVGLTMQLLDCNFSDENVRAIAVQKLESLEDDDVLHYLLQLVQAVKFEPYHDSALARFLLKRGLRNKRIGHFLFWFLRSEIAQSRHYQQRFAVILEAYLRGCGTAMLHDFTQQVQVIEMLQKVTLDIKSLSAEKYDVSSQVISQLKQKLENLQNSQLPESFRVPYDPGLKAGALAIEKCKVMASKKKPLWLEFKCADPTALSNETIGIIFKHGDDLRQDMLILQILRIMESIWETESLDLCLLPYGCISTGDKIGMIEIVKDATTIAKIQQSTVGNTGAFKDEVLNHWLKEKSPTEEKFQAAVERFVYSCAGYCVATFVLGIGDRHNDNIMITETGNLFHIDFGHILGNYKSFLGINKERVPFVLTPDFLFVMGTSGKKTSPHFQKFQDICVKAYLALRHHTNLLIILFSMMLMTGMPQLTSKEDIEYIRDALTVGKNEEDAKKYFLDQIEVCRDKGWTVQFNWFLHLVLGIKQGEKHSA

SMILES: Cc1ccc(-c2nn(C(C)(C)C)c3ncnc(N)c23)cc1 [PP1, reference compound]
- Infarct area in mm^3 (mean ± SEM) (cerebral infarct): 35.4 ± 6.4 mm^3
- % Infarct reduction (cerebral infarct): Not significant

SMILES: O=C(CCc1ccc(O)cc1)Nc1ccccc1-c1cc2ccccc2[nH]1 [3-(4-Hydroxy-phenyl)-N-[2-(1H-indol-2-yl)-phenyl]-propionamide]
- Score (scale of 0-12) (VEGF-induced edema; 1.5 mg/kg IV): 2

SMILES: Nc1ncnc2nc(-c3ccccn3)c(-c3ccccn3)nc12 [6,7-Di-pyridin-2-yl-pteridin-4-ylamine]
- % Infarct reduction (cerebral infarct): Not significant

SMILES: O=C(Nc1ccccc1-c1cc2ccccc2[nH]1)c1cccnc1C(=O)O [3-[2-(1H-Indol-2-yl)-phenylcarbamoyl]-pyridine-2-carboxylic acid]
- Score (scale of 0-12) (VEGF-induced edema; 0.5 mg/kg IV): 5

SMILES: Nc1nc(N)c2nc(-c3ccc(O)cc3)cnc2n1 [4-(2,4-Diamino-pteridin-6-yl)-phenol (sulfate salt)]
- Score (scale of 0-12) (VEGF-induced edema; 5 mg/kg IV): 2

SMILES: Nc1nc(N)c2nc(CNCc3ccc(O)c(O)c3)cnc2n1 [4-{[(2,4-Diamino-pteridin-6-ylmethyl)-amino]-methyl}-benzene-1,2-diol]
- Score (scale of 0-12) (VEGF-induced edema; 5 mg/kg IV): 4

SMILES: Nc1ncnc2nc(-c3ccc(O)cc3)c(-c3ccc(O)cc3)nc12.O=S(=O)(O)O [6,7-bis(4-hydroxyphenyl)-pteridin-4-ylamine sulfate salt]
- Infarct (% AAR, mean ± SEM) (myocardial infarct; [2]): 60.6 ± 1.8 % AAR
- % Infarct reduction (myocardial infarct; [3]): 20%
- Score with histamine as agonist (scale of 0-12) (histamine-induced edema): 3
- Score with VEGF as agonist (scale of 0-12) (VEGF-induced edema): 4
- Infarct area in mm^3 (mean ± SEM) (cerebral infarct): 18.3 ± 2.6 mm^3
- % Infarct reduction (cerebral infarct): 53%

SMILES: CN(C)S(=O)(=O)c1ccc2c(c1)/C(=C/c1cc3c([nH]1)CCCC3)C(=O)N2 [SU6656, reference compound]
- % Infarct reduction (cerebral infarct): Not significant

SMILES: Cl.Nc1nc(N)c2nc(-c3ccc(O)c(O)c3)c(-c3ccc(O)c(O)c3)nc2n1 [6,7-bis(3,4-dihydroxyphenyl)-pteridine-2,4,-diamine, hydrochloride salt]
- Infarct (% AAR, mean ± SEM) (myocardial infarct; [2]): 36.3 ± 6.3 % AAR
- % Infarct reduction (myocardial infarct; [3]): 33%

SMILES: Cl.Cl.Nc1nc(N)c2nc(-c3cccc(O)c3)c(-c3cccc(O)c3)nc2n1 [3-[2,4-diamino-6-(3-hydroxyphenyl)pteridin-7-yl] phenol dihydrochloride salt]
- Infarct (% AAR, mean ± SEM) (myocardial infarct; 0.1 mg/kg BW IV at 90 min post-reperfusion, 24 hr): 37.7 ± 5.8 % AAR
- % Infarct reduction (myocardial infarct; 0.1 mg/kg BW IV at 90 min post-reperfusion, vs vehicle): 30%
- % Infarct reduction (myocardial infarct; 0.1 mg/kg, administration 60 and 240 min post-occlusion): 55%
- Infarct (% AAR, mean ± SEM) (myocardial infarct; 0.1 mg/kg, administration 60 and 240 min post-occlusion, vehicle 54.0 ± 2.9): 24.2 ± 4.9 % AAR
- % Infarct reduction (myocardial infarct; 0.1 mg/kg, administration 60 min post-occlusion): 60%
- Infarct (% AAR, mean ± SEM) (myocardial infarct; 0.1 mg/kg, administration 60 min post-occlusion, vehicle 54.0 ± 2.9): 21.6 ± 5.7 % AAR
- % Infarct reduction (myocardial infarct; 0.1 mg/kg, administration 120 min post-occlusion): 65%
- Infarct (% AAR, mean ± SEM) (myocardial infarct; 0.1 mg/kg, administration 120 min post-occlusion, vehicle 54.0 ± 2.9): 18.8 ± 5.6 % AAR
- % Infarct reduction (myocardial infarct; 0.1 mg/kg, administration 240 min post-occlusion): 65%
- Infarct (% AAR, mean ± SEM) (myocardial infarct; 0.1 mg/kg, administration 240 min post-occlusion, vehicle 54.0 ± 2.9): 19.1 ± 4.0 % AAR
- Infarct (% AAR, mean ± SEM) (myocardial infarct; 1.0 mg/kg BW IV at 90 min post-reperfusion, 24 hr): 46.4 ± 2.6 % AAR
- % Infarct reduction (myocardial infarct; 1.0 mg/kg BW IV at 90 min post-reperfusion, vs vehicle): Not significant
- Score (scale of 0-12) (VEGF-induced edema; 0.01 mg/kg IV): 3
- Score (scale of 0-12) (VEGF-induced edema; 0.1 mg/kg IV): 4
- Score (scale of 0-12) (VEGF-induced edema; 1 mg/kg IV): 4

SMILES: O=C(Nc1ccccc1-c1cc2ccccc2[nH]1)c1cc(O)c(O)c(O)c1 [3,4,5-Trihydroxy-N-[2-(1H-indol-2-yl)-phenyl]-benzamide]
- Score with VEGF as agonist (scale of 0-12) (VEGF-induced edema): 4

SMILES: Cl.Nc1ncnc2nc(-c3ccc(O)c(O)c3)c(-c3ccc(O)c(O)c3)nc12 [4-[4-amino-6-(3,4-dihydroxyphenyl)pteridin-7-yl]benzene-1,2-diol chloride salt]
- Score (scale of 0-12) (VEGF-induced edema; 0.01 mg/kg IV): 6
- Score (scale of 0-12) (VEGF-induced edema; 0.1 mg/kg IV): 3
- Score (scale of 0-12) (VEGF-induced edema; 1 mg/kg IV): 5

SMILES: Nc1nc(N)c2nc(CNCc3ccccn3)cnc2n1 [6-{[(Pyridin-2-ylmethyl)-amino]-methyl}-pteridine-2,4-diamine]
- Score (scale of 0-12) (VEGF-induced edema; 0.1 mg/kg IV): 4

SMILES: Nc1cncc2nc(-c3ccc(O)c(O)c3)c(-c3ccc(O)c(O)c3)nc12 [2,3-(3,4-Dihydroxyphenyl)-pyrido[3,4-b]pyrazin-8-ylamine]
- Score (scale of 0-12) (VEGF-induced edema; 0.01 mg/kg IV): 6

SMILES: Oc1ncnc2nc(-c3ccccc3)c(-c3ccccc3)nc12 [6,7-Diphenyl-pteridin-4-ol]
- Score with VEGF as agonist (scale of 0-12) (VEGF-induced edema): 3

- Percent Control Value at 0.5 μM ([1]; 0.5 μM): 101%
- Percent Control Value at 5 μM ([1]; 5 μM): 90%
SMILES: Nc1cncc2nc(-c3cccc(O)c3)c(-c3cccc(O)c3)nc12 [3,3′-(8-aminopyrido[3,4-]pyrazine-2,3-diyl)diphenol]

SMILES: O=C(Nc1cc2ccccc2[nH]1)c1cc(O)c(O)c(O)c1 [3,4,5-Trihydroxy-N-(1H-indol-2-yl)-benzamide]
- Score with VEGF as agonist (scale of 0-12) (VEGF-induced edema): 5
